Values quoted from earlier work in article PMC7982506 (Acta Pharmaceutica Sinica. B, 2020).
One block for each compound: values may come before it.

What was measured:
SHP2-PTP = biological target: T1, SHP2-PTP (Homo sapiens, UniProt Q06124); conditions: read-out: IC50 reported previously
T1 sequence (Q06124 237-535): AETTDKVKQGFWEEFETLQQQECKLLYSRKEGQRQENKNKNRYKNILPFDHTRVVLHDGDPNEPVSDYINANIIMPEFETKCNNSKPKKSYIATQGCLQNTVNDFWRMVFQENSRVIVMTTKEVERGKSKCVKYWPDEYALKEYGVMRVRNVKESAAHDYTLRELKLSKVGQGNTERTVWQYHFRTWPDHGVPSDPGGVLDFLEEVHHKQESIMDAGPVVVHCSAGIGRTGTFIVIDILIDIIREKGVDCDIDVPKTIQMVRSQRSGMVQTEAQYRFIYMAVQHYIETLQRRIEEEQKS

p-ERK = conditions: versus SHP099
cell growth = conditions: versus SHP099
SHP2-WT = biological target: T2, SHP2-WT (Homo sapiens, UniProt Q06124); conditions: read-out: EC50 of p-IRS1 peptide for SHP2-WT, previously reported
T2 sequence (Q06124 1-535): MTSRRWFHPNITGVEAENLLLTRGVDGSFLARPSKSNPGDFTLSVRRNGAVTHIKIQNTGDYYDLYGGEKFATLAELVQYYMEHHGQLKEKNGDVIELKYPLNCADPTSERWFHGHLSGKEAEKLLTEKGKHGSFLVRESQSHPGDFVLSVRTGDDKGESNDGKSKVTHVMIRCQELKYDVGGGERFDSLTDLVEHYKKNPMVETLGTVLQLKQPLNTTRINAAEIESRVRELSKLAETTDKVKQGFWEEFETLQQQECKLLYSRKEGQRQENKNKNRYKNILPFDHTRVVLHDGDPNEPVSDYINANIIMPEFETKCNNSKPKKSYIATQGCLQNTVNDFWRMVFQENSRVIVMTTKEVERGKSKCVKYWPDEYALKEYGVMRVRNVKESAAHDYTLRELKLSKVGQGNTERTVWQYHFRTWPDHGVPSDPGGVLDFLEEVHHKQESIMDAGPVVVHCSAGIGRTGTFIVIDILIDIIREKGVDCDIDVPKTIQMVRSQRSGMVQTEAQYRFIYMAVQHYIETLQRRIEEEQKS

IC50 (SHP2-PTP): 10 µM
Compound: [Na+].[Na+].[Na+].[O]=[V]([O-])([O-])[O-] [Na3VO4]

Compound: Cc1ncsc1-c1ccc([C@H](C)NC(=O)[C@@H]2C[C@@H](O)CN2C(=O)[C@@H](NC(=O)CCCCCCCCN2CCN(C(=O)CCC(=O)Nc3cccc(Sc4ncc(N5CCC(C)(N)CC5)nc4N)c3Cl)CC2)C(C)(C)C)cc1 [SHP2-D26]
fold more potent than SHP099 in inhibition of p-ERK (p-ERK): 30 fold | fold more potent than SHP099 in inhibition of cell growth (cell growth): 30 fold

EC50 (SHP2-WT): 0.25 µM
Compound: H2N-LN(pY)IDLDLV(dPEG8)LST(pY)ASINFQK-amide [p-IRS1 peptide]
